# System: not given
# Assay: not given
# Details: from C=CCCCC(=O)NC[C@]12C[C@@H](C(=O)Nc3nc(Br)ccc3C)N[C@]1(C(=O)Cn1nc(C#N)c3cc(-c4cnc(C)nc4)nc(CC=C)c31)C2; rcm bond; 17-membered ring; Grubbs II; toluene; 1.27 mM; 80.0 °C; 16.0 h
row,Compound,"ring closure, isolated yield [%]"
1,Cc1ncc(-c2cc3c(C#N)nn4c3c(n2)CC=CCCCC(=O)NC[C@]23C[C@@H](C(=O)Nc5nc(Br)ccc5C)N[C@@]2(C3)C(=O)C4)cn1,44.8

# Same assay, conditions: from C=CCCCNC(=O)Oc1ccc2c(C(C)=O)nn(CC(=O)N3[C@H](C(=O)Nc4nc(Br)ccc4C)C[C@@]4(COCC=C)C[C@@H]34)c2c1; rcm bond; 20-membered ring; Grubbs II; toluene; 1.48 mM; 80.0 °C; 16.0 h
row,Compound,"ring closure, isolated yield [%]"
1,CC(=O)c1nn2c3cc(ccc13)OC(=O)NCCCC=CCOC[C@@]13C[C@@H](C(=O)Nc4nc(Br)ccc4C)N(C(=O)C2)[C@@H]1C3,4.1

# Same assay, conditions: from C=CCOCc1ccc(Br)nc1NC(=O)[C@@H]1C[C@@]2(CN(C)CC=C)C[C@H]2N1C(=O)OC(C)(C)C; rcm bond; 15-membered ring; Hoveyda-Grubbs II (extra 5 mg portions); toluene; 10.0 mM; 80.0 °C; 2.0 h
row,Compound,"ring closure, isolated yield [%]"
1,CN1CC=CCOCc2ccc(Br)nc2NC(=O)[C@@H]2C[C@]3(C[C@H]3N2C(=O)OC(C)(C)C)C1,68

# System: not given
# Assay: not given
# Details: rcm bond; 20-membered ring; Grubbs II; toluene; 1.6 mM; 80.0 °C
row,Compound,"ring closure, yield after HPLC [%]"
1,"(4^1R,4^3S,4^5S,Z)-1^3-acetyl-N-(6-bromo-3-methylpyridin-2-yl)-3,14-dioxo-1^1H-6-oxa-4^2,13,15-triaza-1(1,6)-indazola-4(2,5)-bicyclo[3.1.0]hexanacyclopentadecaphan-8-ene-43-carboxamide",2.1

# Target: Human Factor D (Homo sapiens (Human), UniProt P00746)
# Assay: Human Factor D Assay
# Type: biochemical
# Details: Human Factor D 80 nM, substrate Z-L-Lys-SBzl, DTNB, A405; read-out: IC50 (Stars)
# In short: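 Serum-purified enzyme (80 nM final) was preincubated with compound 5 min at room temperature in 50 mM Tris, 1M NaCl, pH 7.5. Z-L-Lys-SBzl and DTNB ([…] each, final) were added and A405 followed every 30 s for 30 min; IC50 from nonlinear regression of reaction rates.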
# Chain of Human Factor D (P00746 26-253): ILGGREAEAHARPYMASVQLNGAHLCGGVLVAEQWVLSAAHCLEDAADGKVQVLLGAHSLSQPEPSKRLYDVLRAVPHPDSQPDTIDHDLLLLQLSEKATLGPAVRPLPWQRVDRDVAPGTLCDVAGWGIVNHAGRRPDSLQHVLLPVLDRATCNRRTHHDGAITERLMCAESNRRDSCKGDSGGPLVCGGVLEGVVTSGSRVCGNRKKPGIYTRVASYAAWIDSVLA
row,Compound,IC50 [nM]
1,CC(=O)c1nn2c3c(cc(-c4cnc(C)nc4)cc13)CC=CCCCC(=O)NC[C@@]13C[C@@H](C(=O)Nc4cncc(Br)n4)N(C(=O)C2)[C@@H]1C3 [Compound T-233],< 1000
2,CC(=O)c1nn2c3c(cc(-c4cnc(C)nc4)cc13)CCCCCCC(=O)NC[C@@]13C[C@@H](C(=O)Nc4cncc(Br)n4)N(C(=O)C2)[C@@H]1C3 [Compound T-234],< 1000
3,CC(=O)c1nn(CC(=O)N2[C@H]3C[C@@]4(CNC(=O)C(C)(C)C=CCOCc5ccc(C(F)(F)F)nc5NC3=O)C[C@@H]24)c2ccc(-c3cnc(C)nc3)cc12 [Compound T-235],< 1000
4,CC(=O)c1nn(CC(=O)N2[C@H]3C[C@@]4(CNC(=O)C(C)(C)CCCOCc5ccc(C(F)(F)F)nc5NC3=O)C[C@@H]24)c2ccc(-c3cnc(C)nc3)cc12 [Compound T-236],< 1000
5,CC(=O)c1nn2c3c(cc(-c4cnc(C)nc4)cc13)CCCCNC(=O)NC[C@@]13C[C@@H](C(=O)Nc4nc(C(F)(F)F)ccc4C)N(C(=O)C2)[C@@H]1C3 [Compound T-237],< 1000
6,CC(=O)c1nn2c3c(cc(-c4cnc(C)nc4)cc13)CCCCCNC(=O)NC[C@@]13C[C@@H](C(=O)Nc4nc(C(F)(F)F)ccc4C)N(C(=O)C2)[C@@H]1C3 [Compound T-238],< 1000
7,CC(=O)c1nn(CC(=O)N2C[C@@]3(F)COCCCCCCCCc4ccc(Br)nc4NC(=O)[C@@H]2C3)c2cnc(-c3cnc(C)nc3)cc12 [Compound T-239],< 1000
8,COCc1ccc(Br)nc1NC(=O)[C@@H]1C[C@]23CNC(=O)CCCC=CCc4cc(-c5cnc(C)nc5)cc5c(C(C)=O)nn(c45)CC(=O)N1[C@@H]2C3 [Compound T-240],< 1000
9,COCc1ccc(Br)nc1NC(=O)[C@@H]1C[C@]23CNC(=O)CCCCCCc4cc(-c5cnc(C)nc5)cc5c(C(C)=O)nn(c45)CC(=O)N1[C@@H]2C3 [Compound T-241],< 1000
10,CC(=O)c1nn2c3c(cc(-c4cnc(C5CC5)nc4)cc13)CCCCCCC(=O)NC[C@@]13C[C@@H](C(=O)Nc4nc(C(F)(F)F)ccc4C)N(C(=O)C2)[C@@H]1C3 [Compound T-242],< 1000
11,CC(=O)c1nn2c3c(cc(-c4cnc(C)nc4)cc13)CC=CCC[C@H](C)C(=O)N(C)C[C@@]13C[C@@H](C(=O)Nc4nc(C(F)(F)F)ccc4C)N(C(=O)C2)[C@@H]1C3 [Compound T-243],< 1000
12,CC(=O)c1nn2c3c(cc(-c4cnc(C)nc4)cc13)CCCCC[C@H](C)C(=O)N(C)C[C@@]13C[C@@H](C(=O)Nc4nc(C(F)(F)F)ccc4C)N(C(=O)C2)[C@@H]1C3 [Compound T-244],< 1000
13,CC(=O)c1nn2c3c(cc(-c4cnc5ccnn5c4)cc13)CCCCCCC(=O)NC[C@@]13C[C@@H](C(=O)Nc4nc(C(F)(F)F)ccc4C)N(C(=O)C2)[C@@H]1C3 [Compound T-255],< 1000
14,CC(=O)c1nn2c3c(cc(-c4cnc5cc(C)nn5c4)cc13)CCCCCCC(=O)NC[C@@]13C[C@@H](C(=O)Nc4nc(C(F)(F)F)ccc4C)N(C(=O)C2)[C@@H]1C3 [Compound T-256],< 1000
15,CC(=O)c1nn2c3c(cc(-c4ccc5nc(C)nn5c4)cc13)CCCCCCC(=O)NC[C@@]13C[C@@H](C(=O)Nc4nc(C(F)(F)F)ccc4C)N(C(=O)C2)[C@@H]1C3 [Compound T-257],< 1000
16,CC(=O)c1nn2c3c(cc(-c4cnc5cc(C6CC6)nn5c4)cc13)CCCCCCC(=O)NC[C@@]13C[C@@H](C(=O)Nc4nc(C(F)(F)F)ccc4C)N(C(=O)C2)[C@@H]1C3 [Compound T-258],< 1000
17,"(41R,43S,45R)-42-(2-(3-acetyl-5-(2- methylpyrimidin-5-yl)-1H-indazol-1- yl)acetyl)-16-bromo-6-methyl-7-thia-42,6- diaza-1(2,3)-pyridina-4(3,5)- bicyclo[3.1.0]hexanacycloundecaphan-10- en-3-one 7,7-dioxide [Compound T-17]",< 1000

# — patent publication US11053253B2, “Macrocyclic compounds for treatment of medical disorders” (Achillion Pharmaceuticals, Inc., priority 2017, dated 2021)
